Experimental data reported in ChEMBL document CHEMBL1201862, “PubChem BioAssay data set” (2004).
Blank lines part the entries; values can stand above or below the compound they belong to. Activity calls are given as the source filed them.

Assays:
Format in all cases: functional
[1] = target: Melanocortin receptor 4 (Homo sapiens, UniProt P32245); assay: MC4R antagonist potency on cAMP, dose response, cell-based, TR-FRET, biased antagonists (AID 602298);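 note: antagonist potency against agonist-stimulated cAMP production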
[2] = nonselective inhibitors of cellular cAMP signaling, dose response, counter-screen for MC4R biased antagonist project, cell-based, TR-FRET cAMP detection (AID 602305);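 note: U2OS cells stimulated with forskolin near its EC80 as the cAMP inducer; potency is for inhibition of forskolin-stimulated cAMP signaling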
[3] = target: Multidrug resistance protein CDR2 (Candida albicans (strain SC5314 / ATCC MYA-2876) (Yeast), UniProt P78595); assay: CaCDR2 efflux pump inhibitors in yeast, dose response, S. cerevisiae AD1-8u, singleplex, Cherry Pick1 hits (AID 588604)
[4] = target: Aurora kinase A (Homo sapiens, UniProt O14965);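 note: value from the Navigating the Kinome kinase panel profiling, panel entry STK6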
[5] = target: Vascular endothelial growth factor receptor 2 (Homo sapiens, UniProt P35968)
[6] = target: Aurora kinase B (Homo sapiens, UniProt Q96GD4)
Chain of Aurora kinase B (Q96GD4 whole entry): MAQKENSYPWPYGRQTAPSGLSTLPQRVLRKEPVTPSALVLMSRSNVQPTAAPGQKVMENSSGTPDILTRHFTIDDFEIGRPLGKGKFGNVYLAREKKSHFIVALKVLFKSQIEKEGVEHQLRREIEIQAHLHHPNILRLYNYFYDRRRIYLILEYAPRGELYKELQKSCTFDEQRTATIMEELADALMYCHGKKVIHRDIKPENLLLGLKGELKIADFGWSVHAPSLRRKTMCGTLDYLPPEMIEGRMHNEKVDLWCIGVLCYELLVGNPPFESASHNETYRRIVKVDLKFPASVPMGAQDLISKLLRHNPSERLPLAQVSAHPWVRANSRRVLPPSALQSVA

[7] = target: Ribosomal protein S6 kinase alpha-3 (Homo sapiens, UniProt P51812);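 note: measured within a kinome-wide profiling panel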
[8] = target: Dual specificity protein kinase CLK2 (Homo sapiens, UniProt P49760)
[9] = target: Dual specificity mitogen-activated protein kinase kinase 1 (Homo sapiens, UniProt Q02750); assay: Navigating the Kinome. Panel member name: MAP2K1
[10] = target: Serine/threonine-protein kinase PLK3 (Homo sapiens, UniProt Q9H4B4)
[11] = target: Serine/threonine-protein kinase TBK1 (Homo sapiens, UniProt Q9UHD2); assay: Navigating the Kinome. Panel member name: TBK1
[12] = target: RAC-gamma serine/threonine-protein kinase (Homo sapiens, UniProt Q9Y243)
[13] = target: 5'-AMP-activated protein kinase catalytic subunit alpha-1 (Homo sapiens, UniProt Q13131)
Chain of 5'-AMP-activated protein kinase catalytic subunit alpha-1 (Q13131 whole entry): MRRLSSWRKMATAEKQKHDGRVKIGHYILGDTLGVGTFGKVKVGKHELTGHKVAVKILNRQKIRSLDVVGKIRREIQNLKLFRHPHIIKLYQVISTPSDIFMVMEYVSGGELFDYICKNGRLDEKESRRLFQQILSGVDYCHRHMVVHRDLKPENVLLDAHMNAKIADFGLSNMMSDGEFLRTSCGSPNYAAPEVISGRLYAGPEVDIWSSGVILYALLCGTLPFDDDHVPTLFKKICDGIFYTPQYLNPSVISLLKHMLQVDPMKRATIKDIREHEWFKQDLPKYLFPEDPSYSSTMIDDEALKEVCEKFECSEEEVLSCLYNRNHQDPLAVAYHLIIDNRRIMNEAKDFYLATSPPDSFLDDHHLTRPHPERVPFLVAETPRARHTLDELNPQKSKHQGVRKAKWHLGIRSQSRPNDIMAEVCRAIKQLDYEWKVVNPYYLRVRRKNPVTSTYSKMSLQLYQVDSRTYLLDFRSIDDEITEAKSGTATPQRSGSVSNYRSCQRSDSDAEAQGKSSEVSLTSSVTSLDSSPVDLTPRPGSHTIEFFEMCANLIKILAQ

[14] = target: Serine/threonine-protein kinase D3 (Homo sapiens, UniProt O94806);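 note: determined within a kinase panel screen, with PRKCN as the panel member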
[15] = target: Serine/threonine-protein kinase pim-1 (Homo sapiens, UniProt P11309)
[16] = target: Serine/threonine-protein kinase PAK 4 (Homo sapiens, UniProt O96013);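 note: value obtained within a kinome profiling panel in which PAK4 was one of the panel members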
[17] = target: Fibroblast growth factor receptor 1 (Homo sapiens, UniProt P11362)
Chain of Fibroblast growth factor receptor 1 (P11362 whole entry, canonical isoform): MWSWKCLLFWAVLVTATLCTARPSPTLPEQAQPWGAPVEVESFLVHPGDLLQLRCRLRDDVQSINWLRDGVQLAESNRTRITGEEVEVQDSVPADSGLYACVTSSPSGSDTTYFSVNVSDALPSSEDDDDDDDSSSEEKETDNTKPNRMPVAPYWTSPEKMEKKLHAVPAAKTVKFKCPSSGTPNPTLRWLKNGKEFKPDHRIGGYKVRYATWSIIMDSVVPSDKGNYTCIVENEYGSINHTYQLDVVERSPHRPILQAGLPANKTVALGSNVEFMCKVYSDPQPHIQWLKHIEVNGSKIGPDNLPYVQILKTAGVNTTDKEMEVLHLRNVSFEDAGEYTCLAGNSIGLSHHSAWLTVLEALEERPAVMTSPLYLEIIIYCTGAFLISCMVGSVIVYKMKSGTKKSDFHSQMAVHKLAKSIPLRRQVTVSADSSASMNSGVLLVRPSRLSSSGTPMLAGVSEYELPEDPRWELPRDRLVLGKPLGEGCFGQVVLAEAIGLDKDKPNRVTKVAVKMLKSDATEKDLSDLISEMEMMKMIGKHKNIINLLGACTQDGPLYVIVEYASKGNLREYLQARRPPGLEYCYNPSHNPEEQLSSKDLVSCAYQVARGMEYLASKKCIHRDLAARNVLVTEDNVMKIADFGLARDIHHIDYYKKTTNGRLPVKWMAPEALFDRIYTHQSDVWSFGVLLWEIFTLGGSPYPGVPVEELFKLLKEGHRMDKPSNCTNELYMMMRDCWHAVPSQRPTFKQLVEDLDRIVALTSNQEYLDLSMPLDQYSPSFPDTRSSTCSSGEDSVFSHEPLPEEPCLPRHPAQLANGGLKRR

[18] = target: Casein kinase I isoform alpha (Homo sapiens, UniProt P48729)
[19] = target: Mitogen-activated protein kinase 9 (Homo sapiens, UniProt P45984);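 note: value from a kinome panel profiling assay, MAPK9 panel entry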
Chain of Mitogen-activated protein kinase 9 (P45984 whole entry, the tested form may be a part): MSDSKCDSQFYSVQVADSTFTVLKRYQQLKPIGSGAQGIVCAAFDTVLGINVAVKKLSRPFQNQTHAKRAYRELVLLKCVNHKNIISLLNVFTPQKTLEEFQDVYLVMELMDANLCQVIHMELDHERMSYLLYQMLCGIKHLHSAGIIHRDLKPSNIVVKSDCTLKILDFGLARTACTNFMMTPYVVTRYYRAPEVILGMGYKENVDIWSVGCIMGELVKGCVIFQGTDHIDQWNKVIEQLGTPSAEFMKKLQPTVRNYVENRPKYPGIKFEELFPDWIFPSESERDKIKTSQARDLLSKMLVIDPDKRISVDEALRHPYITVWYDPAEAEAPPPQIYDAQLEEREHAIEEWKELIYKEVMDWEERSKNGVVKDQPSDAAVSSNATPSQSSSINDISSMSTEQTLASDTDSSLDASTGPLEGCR

[20] = target: LIM domain kinase 1 (Homo sapiens, UniProt P53667); assay: Navigating the Kinome. Panel member name: LIMK1
[21] = target: Serine/threonine-protein kinase pim-3 (Homo sapiens, UniProt Q86V86);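 note: value obtained as one member of a broad kinase panel profiling effort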
[22] = target: Glycogen synthase kinase-3 alpha (Homo sapiens, UniProt P49840);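 note: GSK3A result taken from a broad kinome-wide kinase panel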
[23] = target: Activated CDC42 kinase 1 (Homo sapiens, UniProt Q07912); assay: Navigating the Kinome. Panel member name: ACK1
Chain of Activated CDC42 kinase 1 (Q07912 whole entry): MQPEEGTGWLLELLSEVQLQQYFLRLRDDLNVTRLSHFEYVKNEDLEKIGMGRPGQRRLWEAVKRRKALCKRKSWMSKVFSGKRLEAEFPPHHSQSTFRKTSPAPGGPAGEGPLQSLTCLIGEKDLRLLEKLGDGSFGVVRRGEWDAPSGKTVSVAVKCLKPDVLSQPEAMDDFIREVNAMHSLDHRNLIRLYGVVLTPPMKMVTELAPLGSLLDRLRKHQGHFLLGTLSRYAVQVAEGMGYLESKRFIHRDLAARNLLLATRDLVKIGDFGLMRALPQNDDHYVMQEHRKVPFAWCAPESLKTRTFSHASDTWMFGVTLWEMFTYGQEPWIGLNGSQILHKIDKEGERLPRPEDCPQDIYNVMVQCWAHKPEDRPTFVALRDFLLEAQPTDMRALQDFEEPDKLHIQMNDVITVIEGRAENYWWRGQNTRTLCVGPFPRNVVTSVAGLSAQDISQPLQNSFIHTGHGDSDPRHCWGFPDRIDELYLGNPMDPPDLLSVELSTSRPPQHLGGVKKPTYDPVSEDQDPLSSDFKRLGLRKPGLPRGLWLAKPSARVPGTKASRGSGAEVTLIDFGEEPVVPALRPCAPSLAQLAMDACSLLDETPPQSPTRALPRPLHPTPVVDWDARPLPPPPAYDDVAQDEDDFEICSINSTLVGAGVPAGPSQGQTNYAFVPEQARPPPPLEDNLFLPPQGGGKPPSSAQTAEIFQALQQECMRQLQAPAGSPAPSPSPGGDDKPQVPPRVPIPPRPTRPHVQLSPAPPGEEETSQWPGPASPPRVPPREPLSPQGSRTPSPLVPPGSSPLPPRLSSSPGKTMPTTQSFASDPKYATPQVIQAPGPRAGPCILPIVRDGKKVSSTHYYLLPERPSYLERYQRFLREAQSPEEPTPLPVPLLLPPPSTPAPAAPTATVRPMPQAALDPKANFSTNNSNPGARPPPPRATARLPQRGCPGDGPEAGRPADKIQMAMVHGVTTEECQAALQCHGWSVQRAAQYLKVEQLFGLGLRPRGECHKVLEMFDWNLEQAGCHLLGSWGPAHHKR

[24] = target: Serine/threonine-protein kinase Chk1 (Homo sapiens, UniProt O14757);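 note: measured as one member of a kinome-wide kinase profiling panel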
Chain of Serine/threonine-protein kinase Chk1 (O14757 whole entry): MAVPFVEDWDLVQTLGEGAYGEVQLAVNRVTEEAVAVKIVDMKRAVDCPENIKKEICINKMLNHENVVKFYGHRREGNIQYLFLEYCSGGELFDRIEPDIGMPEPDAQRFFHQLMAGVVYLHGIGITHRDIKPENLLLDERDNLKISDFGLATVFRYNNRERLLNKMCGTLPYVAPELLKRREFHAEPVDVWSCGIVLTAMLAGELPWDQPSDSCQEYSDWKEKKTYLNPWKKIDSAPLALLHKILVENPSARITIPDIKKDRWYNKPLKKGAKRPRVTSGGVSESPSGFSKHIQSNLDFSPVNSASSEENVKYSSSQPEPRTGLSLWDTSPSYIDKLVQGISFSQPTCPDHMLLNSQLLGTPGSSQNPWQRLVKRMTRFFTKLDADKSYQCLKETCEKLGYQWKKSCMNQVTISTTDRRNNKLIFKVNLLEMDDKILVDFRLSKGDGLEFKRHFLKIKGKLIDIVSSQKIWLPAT

[25] = target: G protein-coupled receptor kinase 5 (Homo sapiens, UniProt P34947); assay: Navigating the Kinome. Panel member name: GPRK5
[26] = target: Cyclin-dependent kinase 5 (Homo sapiens, UniProt Q00535);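 note: CDK5 measured as one member of a kinase profiling panel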
Chain of Cyclin-dependent kinase 5 (Q00535 whole entry): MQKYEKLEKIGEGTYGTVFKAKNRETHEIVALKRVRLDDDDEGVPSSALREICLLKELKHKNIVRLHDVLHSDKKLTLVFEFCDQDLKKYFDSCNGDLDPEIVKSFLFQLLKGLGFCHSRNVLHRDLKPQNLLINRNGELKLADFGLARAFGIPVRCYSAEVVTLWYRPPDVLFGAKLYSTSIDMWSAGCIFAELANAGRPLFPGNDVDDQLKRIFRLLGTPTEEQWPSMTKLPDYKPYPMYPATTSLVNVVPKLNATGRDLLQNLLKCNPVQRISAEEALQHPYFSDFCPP

[27] = target: Dual specificity tyrosine-phosphorylation-regulated kinase 1B (Homo sapiens, UniProt Q9Y463); assay: Navigating the Kinome. Panel member name: DYRK1B
[28] = target: cAMP-dependent protein kinase catalytic subunit PRKX (Homo sapiens, UniProt P51817)
[29] = target: Leucine-rich repeat serine/threonine-protein kinase 2 (Homo sapiens, UniProt Q5S007);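 note: value from a broad kinome-wide panel profiling study in which LRRK2 was one of the kinases tested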
[30] = target: RAC-alpha serine/threonine-protein kinase (Homo sapiens, UniProt P31749);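 note: AKT1 affinity measured as one member of a kinome-wide kinase profiling panel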
[31] = target: Rho-associated protein kinase 1 (Homo sapiens, UniProt Q13464);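 note: measured within a broad kinome-wide panel profiling many kinases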
[32] = target: Serine/threonine-protein kinase Nek2 (Homo sapiens, UniProt P51955)
[33] = target: Cyclin-dependent kinase 8 (Homo sapiens, UniProt P49336); assay: Navigating the Kinome. Panel member name: CDK8
[34] = target: Cyclin-dependent kinase 7 (Homo sapiens, UniProt P50613);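 note: value comes from a kinome-wide kinase profiling panel in which CDK7 is one member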
[35] = target: Serine/threonine-protein kinase PLK1 (Homo sapiens, UniProt P53350);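 note: PLK1 measured as one member of a kinome-wide profiling panel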
[36] = target: Glycogen synthase kinase-3 beta (Homo sapiens, UniProt P49841);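 note: value comes from a broad kinome profiling panel, with GSK3B as the panel member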
Chain of Glycogen synthase kinase-3 beta (P49841 whole entry): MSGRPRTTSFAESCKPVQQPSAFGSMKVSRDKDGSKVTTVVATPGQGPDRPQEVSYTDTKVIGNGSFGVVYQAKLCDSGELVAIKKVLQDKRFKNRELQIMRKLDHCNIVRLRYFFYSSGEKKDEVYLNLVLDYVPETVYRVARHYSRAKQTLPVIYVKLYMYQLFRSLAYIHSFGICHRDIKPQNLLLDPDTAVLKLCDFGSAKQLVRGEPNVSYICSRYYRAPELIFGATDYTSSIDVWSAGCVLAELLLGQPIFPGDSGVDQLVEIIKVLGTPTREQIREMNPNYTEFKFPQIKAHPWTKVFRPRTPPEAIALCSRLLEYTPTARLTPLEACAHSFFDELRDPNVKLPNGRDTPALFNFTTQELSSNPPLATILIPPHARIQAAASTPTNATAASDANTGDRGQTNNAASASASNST

[37] = target: BDNF/NT-3 growth factors receptor (Homo sapiens, UniProt Q16620);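 note: NTRK2 measured as one member of a broad kinome-wide kinase profiling panel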
[38] = target: Dual specificity protein kinase CLK4 (Homo sapiens, UniProt Q9HAZ1)
Chain of Dual specificity protein kinase CLK4 (Q9HAZ1 whole entry): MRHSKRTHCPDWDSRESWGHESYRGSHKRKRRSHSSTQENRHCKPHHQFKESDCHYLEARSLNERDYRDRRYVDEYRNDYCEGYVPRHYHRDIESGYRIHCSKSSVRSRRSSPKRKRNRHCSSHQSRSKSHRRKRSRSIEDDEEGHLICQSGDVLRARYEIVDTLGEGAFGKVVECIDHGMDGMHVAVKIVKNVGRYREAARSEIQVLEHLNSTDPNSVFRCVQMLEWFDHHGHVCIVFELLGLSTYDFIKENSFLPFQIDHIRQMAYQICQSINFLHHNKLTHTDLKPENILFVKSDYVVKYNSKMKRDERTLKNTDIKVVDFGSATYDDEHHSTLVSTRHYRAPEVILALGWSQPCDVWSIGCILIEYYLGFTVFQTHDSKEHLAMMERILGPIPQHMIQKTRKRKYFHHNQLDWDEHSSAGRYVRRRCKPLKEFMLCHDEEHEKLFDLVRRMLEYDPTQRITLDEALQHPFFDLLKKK

[39] = target: Macrophage-stimulating protein receptor (Homo sapiens, UniProt Q04912); assay: Navigating the Kinome. Panel member name: MST1R
[40] = target: Dual specificity mitogen-activated protein kinase kinase 2 (Homo sapiens, UniProt P36507); assay: Navigating the Kinome. Panel member name: MAP2K2
[41] = target: Dual specificity tyrosine-phosphorylation-regulated kinase 1A (Homo sapiens, UniProt Q13627);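 note: measured against DYRK1A as one member of a broad kinome profiling panel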
[42] = target: Inhibitor of nuclear factor kappa-B kinase subunit epsilon (Homo sapiens, UniProt Q14164); assay: Navigating the Kinome. Panel member name: IKBKE
[43] = target: Calcium/calmodulin-dependent protein kinase type II subunit alpha (Homo sapiens, UniProt Q9UQM7); assay: Navigating the Kinome. Panel member name: CAMK2A
[44] = target: Mitogen-activated protein kinase 14 (Homo sapiens, UniProt Q16539);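 note: part of a kinome-wide panel, MAPK14 entry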
[45] = target: High affinity nerve growth factor receptor (Homo sapiens, UniProt P04629);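 note: NTRK1 tested as one member of a kinome-wide profiling panel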
[46] = target: Hepatocyte growth factor receptor (Homo sapiens, UniProt P08581);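 note: kinase panel profiling across the kinome, with MET as the panel member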
[47] = target: cAMP-dependent protein kinase catalytic subunit alpha (Homo sapiens, UniProt P17612)
[48] = target: Serine/threonine-protein kinase TAO1 (Homo sapiens, UniProt Q7L7X3)

SMILES: O=C(CNC(=O)C(c1ccccc1)c1ccccc1)OCc1ccccc1
IC50 [1]: > 64.6 µM (inactive)
IC50 [2]: > 64.6 µM (inactive)

SMILES: O=C(N=C(NC(=O)c1ccccc1)Nc1nc2ccccc2o1)c1ccccc1
EC50 [3]: 1.53 µM (active)

Ki [4]: > 2 µM (inactive)
Ki [5]: 3.98 µM (active)
Ki [6]: 0.0794 µM (active)
SMILES: Nc1nc(SCC(=O)Nc2ncccn2)nc2nc[nH]c12

Ki [7]: > 79.4 µM (inactive)
Ki [8]: > 79.4 µM (inactive)
Ki [9]: > 63.1 µM (inactive)
Ki [10]: > 79.4 µM (inactive)
Ki [11]: > 63.1 µM (inactive)
Ki [12]: > 100 µM (inactive)
Ki [13]: > 63.1 µM (inactive)
Ki [14]: > 79.4 µM (inactive)
Ki [15]: 50.1 µM (active)
Ki [16]: > 100 µM (inactive)
Ki [17]: > 63.1 µM (inactive)
Ki [18]: 63.1 µM (active)
Ki [19]: > 79.4 µM (inactive)
Ki [20]: > 63.1 µM (inactive)
Ki [21]: > 79.4 µM (inactive)
Ki [22]: > 79.4 µM (inactive)
Ki [23]: > 79.4 µM (inactive)
Ki [24]: > 79.4 µM (inactive)
Ki [25]: > 79.4 µM (inactive)
Ki [26]: 63.1 µM (active)
Ki [27]: 31.6 µM (active)
Ki [28]: > 63.1 µM (inactive)
Ki [29]: 31.6 µM (active)
Ki [6]: > 79.4 µM (inactive)
Ki [30]: > 79.4 µM (inactive)
Ki [31]: 20 µM (active)
Ki [32]: > 63.1 µM (inactive)
Ki [33]: > 79.4 µM (inactive)
Ki [34]: > 79.4 µM (inactive)
Ki [35]: > 79.4 µM (inactive)
Ki [36]: > 79.4 µM (inactive)
Ki [37]: > 79.4 µM (inactive)
Ki [38]: 6.31 µM (active)
Ki [39]: > 79.4 µM (inactive)
Ki [40]: > 79.4 µM (inactive)
Ki [41]: 20 µM (active)
Ki [42]: > 63.1 µM (inactive)
Ki [43]: > 79.4 µM (inactive)
Ki [44]: > 79.4 µM (inactive)
SMILES: O=C1NCc2c(Br)cccc21

Ki [17]: 63.1 µM (active)
Ki [45]: 63.1 µM (active)
Ki [46]: 63.1 µM (active)
Ki [36]: 63.1 µM (active)
Ki [47]: 50.1 µM (active)
SMILES: O=C1NCc2ccc(-c3ccc(Cl)cc3)cc21

Ki [48]: 1.58 µM (active)
Ki [26]: 0.794 µM (active)
Ki [38]: 1.26 µM (active)
SMILES: Nc1cc(Nc2ccc(O)c(CNC(=O)C(F)(F)F)c2)ncn1
